Data as given in patent US8071589B2, “Dihydrobenzoindazoles” (N. V. Organon, priority 2009, dated 2011).

The compounds below were run against T1, human FSH receptor (Homo sapiens, UniProt P23945) (assay: Agonistic activity at the human FSH receptor expressed in CHO cells (CRE-luciferase reporter)).
T1 sequence (P23945 18-695): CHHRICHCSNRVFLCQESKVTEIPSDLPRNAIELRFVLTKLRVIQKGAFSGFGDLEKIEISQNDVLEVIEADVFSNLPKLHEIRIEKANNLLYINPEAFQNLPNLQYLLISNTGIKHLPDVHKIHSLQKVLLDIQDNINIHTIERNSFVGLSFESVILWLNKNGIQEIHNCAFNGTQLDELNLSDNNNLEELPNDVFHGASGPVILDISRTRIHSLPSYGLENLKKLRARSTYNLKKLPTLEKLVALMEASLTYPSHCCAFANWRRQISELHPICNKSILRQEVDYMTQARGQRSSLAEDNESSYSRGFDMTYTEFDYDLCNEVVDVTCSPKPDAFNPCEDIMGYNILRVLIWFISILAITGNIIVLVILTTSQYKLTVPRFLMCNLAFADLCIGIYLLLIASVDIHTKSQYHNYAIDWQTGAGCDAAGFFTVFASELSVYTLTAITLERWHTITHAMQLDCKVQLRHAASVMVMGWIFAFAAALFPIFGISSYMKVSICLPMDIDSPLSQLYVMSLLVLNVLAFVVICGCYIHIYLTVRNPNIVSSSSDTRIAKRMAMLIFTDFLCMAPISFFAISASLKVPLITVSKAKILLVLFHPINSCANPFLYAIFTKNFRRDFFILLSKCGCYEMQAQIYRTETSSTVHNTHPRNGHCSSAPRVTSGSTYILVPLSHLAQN
From the text: The term EC50 means the concentration of the test compound that elicits half-maximal (50%) stimulation compared to the compound's maximally attainable effect. pEC50 is the negative log of EC50. The values can be determined e.g. in a cell line transfected with a FSH receptor gene and cotransfected with a cAMP responsive element/promoter directing the expression of a reporter gene. For the determination a software program such as MathIQ (version 2.0, ID Business Solutions Limited) can be used.
Agonistic activity of the compounds at the human FSH receptor was determined in Chinese Hamster Ovary (CHO) cells stably transfected with the human FSH receptor and cotransfected with a cAMP responsive element (CRE)/promotor directing the expression of a firefly luciferase reporter gene. […] Cells (7,500 cells/well of a 384 well plate) were incubated in Dulbecco' minimal essential F12 modified medium (Invitrogen), supplemented with 1 μg/ml bovine insulin, 5 μg/ml human apo-transferrin, 80 U/ml penicillin G and 80 μg/ml streptomycin with the test compounds (concentration between 0.0316 nM and 10.0 μM) in duplicate in a humidified atmosphere (95%) at 5-7% CO2 and 37° C. The final concentration of DMSO was 1%. After 4 hours of incubation, plates were allowed to adjust to room temperature for 1 hour. Then, Luclite (PerkinElmer) solution was added to the wells and cells were allowed to lyse for at least 1 hour at room temperature. Subsequently, luciferase activity was measured in a luminescence counter. The signal is expressed as counts per second (cps). The EC50 (concentration of the test compound that elicits half-maximal (50%) luciferase stimulation compared to the compound's maximally attainable effect) and efficacy values (maximal effect of the test compound as percentage of the maximal effect of recombinant human FSH) of the compounds were determined using the software program MathIQ (version 2.0, ID Business Solutions Limited).

SMILES | EC50 [nM]
COc1cc2c(cc1OC(C)C)-c1c(c(C(=O)N(C)C(C)(C)C)nn1-c1cccs1)CC2 [Example 5b, N-tert-butyl-8-isopropoxy-7-methoxy-N-methyl-1-(thiophen-2-yl)-4,5-dihydro-1H-benzo[g]indazole-3-carboxamide] | < 100
COc1cc2c(cc1OC(C)C)-c1c(c(C(=O)N3CCCN(C(C)=O)CC3)nn1-c1ccc(F)cc1)CC2 [Example 3c, 1-(4-(1-(4-fluorophenyl)-8-isopropoxy-7-methoxy-4,5-dihydro-1H-benzo[g]indazole-3-carbonyl)-1,4-diazepan-1-yl)ethanone] | < 100
COc1cc2c(cc1OC(C)C)-c1c(c(C(=O)N(C)C(C)(C)C)nn1-c1ccsc1)CC2 [Example 2h, N-tert-butyl-8-isopropoxy-7-methoxy-N-methyl-1-(thiophen-3-yl)-4,5-dihydro-1H-benzo[g]indazole-3-carboxamide] | < 100

Continued, values first:

EC50 [nM] | SMILES
< 100 | COc1cc2c(cc1OC(C)C)-c1c(c(C(=O)N3CCCN(C(=O)C4CCC4)CC3)nn1-c1ccc(F)cc1)CC2 [Example 3d, (4-(cyclobutanecarbonyl)-1,4-diazepan-1-yl)(1-(4-fluorophenyl)-8-isopropoxy-7-methoxy-4,5-dihydro-1H-benzo[g]indazol-3-yl)methanone]
< 100 | COc1cc2c(cc1OC(C)C)-c1c(c(C(=O)N3CCCN(C(=O)C4CCC4)CC3)nn1-c1ccsc1)CC2 [Example 2g, (4-(cyclobutanecarbonyl)-1,4-diazepan-1-yl)(8-isopropoxy-7-methoxy-1-(thiophen-3-yl)-4,5-dihydro-1H-benzo[g]indazol-3-yl)methanone]
< 100 | COc1cc2c(cc1-c1cccnc1)-c1c(c(C(=O)N(C)C(C)(C)C)nn1-c1ccccc1Cl)CC2 [Example 11gb, N-tert-butyl-1-(2-chlorophenyl)-7-methoxy-N-methyl-8-(pyridin-3-yl)-4,5-dihydro-1H-benzo[g]indazole-3-carboxamide]
